How the values were obtained:
[1] = in vivo; details: mouse, po, mice, deaths counted for 7 days
Method: In this example, 3-7 male dd mice weighing 20±1 g were used as one group. Each drug was suspended in a 0.3% CMC solution and orally administered. After the administration, number of dead animals was counted for 7 days to determine LD50 value. As the reference drugs, mepirizole and benzydamine hydrochloride were dissolved in water and orally administered. The drugs and the reference drugs were also administered in the same manner as above in Examples 2-5.

[2] = tested on: male dd mice; test: Muscle relaxant activity: slant test; assay type: in vivo; details: 5 mice per group
Method: (§1) In this example, 5 male dd mice weighing 20±1 g were used as one group. Prior to the experiments, mice were placed on the rod having a diameter of 3 cm and rotating at 5 r.p.m. in the reverse direction of the rotation. […] The drugs were orally administered and the muscle relaxant activity with the passage of time was examined by the following tests.
Slant test: Each mouse was placed on a wire net inclined at an angle of 45° to observe whether it falls or not.
(§2) In each test, the drug was considered to have a muscle relaxant activity when the mouse fell.

[3] = tested on: male dd mice; test: Muscle relaxant activity: rotating rod test; assay type: in vivo; details: 5 mice per group
Method: as §1
Rotating rod test: The same mouse was placed on the rotating rod to observe whether it falls or not within 2 minutes.
as §2

[4] = tested on: male dd mice; test: Muscle relaxant activity: traction test; assay type: in vivo; details: 5 mice per group
Text: as §1
Traction test: Forefeet of the same mouse were placed on a wire to observe whether it falls or not.
as §2

[5] = tested on: male dd mice; test: Anticonvulsant activity: maximal electroshock convulsion test; assay type: in vivo; details: Mus musculus, po, 1 h, 60 min after administration, read-out: Maximal electroshock convulsion test, inhibition ratio; for responders at 150 mg/kg: 150 mg/kg p.o.; for responders at 300 mg/kg: 300 mg/kg p.o.; for responders at 100 mg/kg: 100 mg/kg p.o.
Text: Anticonvulsant activity was examined according to maximal electroshock convulsion test.
In this experiment, 10 male dd mice weighing 23±1 g were used as one group. Each drug was orally administered to the animals. Sixty minutes after the administration, an electric current (2000 V, 50 mA) was applied to both eyes of the mouse for 0.2 second. Drug activity was judged according to whether tonic extensor seizures were observed or not.

[6] = tested on: male dd mice; test: Analgesic activity: acetic acid writhing; assay type: in vivo; details: Mus musculus, po, 1 h, acetic acid i.p. after 60 min, read-out: Inhibition ratio (writhes, vs control); for inhibition in vivo at 150 mg/kg: 150 mg/kg p.o.
Method: In this experiment, 10 male dd mice weighing 20±1 g were used as one group for examination of analgesic activity. Sixty minutes after oral administration of each drug to each animal, 0.2 ml of a 0.7% acetic acid solution was intraperitoneally administered to the animal. Starting 10 minutes after the administration of acetic acid, the number of writhes occurred in 10 minutes was counted. Average number of writhes and inhibition ratio in comparison with control group were calculated.

[7] = tested on: male Wistar rats; test: Anti-inflammatory activity: carrageenin edema method; assay type: in vivo; details: Rattus norvegicus, po, 3 hours after carrageenin, read-out: Inhibition ratio (paw swelling, vs control); for inhibition in vivo at 150 mg/kg: 150 mg/kg p.o.
Method: In this experiment, 5 male Wistar rats weighing 140±10 g were used as one group. Sixty minutes after oral administration of each drug to each animal, 0.1 ml of a 1% carrageenin solution as a phlogistic agent was injected into the plantar surface of the right hind paw of the animal to induce inflammation. The volume of the paw was measured before and 3 hours after the injection of the phlogistic agent. Swelling ratio and inhibition ratio in comparison with control group were calculated.

Compound | LD50 at 168 h [1] [mg/kg] | Number of dropped mice, slant test ([2]; 150 mg/kg p.o., 1 hr) [mice] | Number of dropped mice, slant test ([2]; 150 mg/kg p.o., 2 hr) [mice] | Number of dropped mice, slant test ([2]; 150 mg/kg p.o., 3 hr) [mice] | Number of dropped mice, slant test ([2]; 300 mg/kg p.o., 1 hr) [mice] | Number of dropped mice, slant test ([2]; 300 mg/kg p.o., 2 hr) [mice] | Number of dropped mice, slant test ([2]; 300 mg/kg p.o., 3 hr) [mice] | Number of dropped mice, rotating rod test ([3]; 150 mg/kg p.o., 1 hr) [mice] | Number of dropped mice, rotating rod test ([3]; 150 mg/kg p.o., 2 hr) [mice] | Number of dropped mice, rotating rod test ([3]; 150 mg/kg p.o., 3 hr) [mice] | Number of dropped mice, rotating rod test ([3]; 300 mg/kg p.o., 1 hr) [mice] | Number of dropped mice, rotating rod test ([3]; 300 mg/kg p.o., 2 hr) [mice] | Number of dropped mice, rotating rod test ([3]; 300 mg/kg p.o., 3 hr) [mice] | Number of dropped mice, traction test ([4]; 150 mg/kg p.o., 1 hr) [mice] | Number of dropped mice, traction test ([4]; 150 mg/kg p.o., 2 hr) [mice] | Number of dropped mice, traction test ([4]; 150 mg/kg p.o., 3 hr) [mice] | responders at 150 mg/kg [5] [%] | responders at 300 mg/kg [5] [%] | inhibition in vivo at 150 mg/kg [6] [%] | inhibition in vivo at 150 mg/kg [7] [%] | further results
Cc1ccc2oc(C(=O)N(C)C)c(C)c2c1 [Compound (E), N,N,3,5-Tetramethylbenzo-[b]furan-2-carboxamide] | > 1000 | 1 | 0 | 0 | 3 | 2 | 1 | 1 | 0 | 0 | 4 | 2 | 2 | 0 | 0 | 0 | 10 | 57.1 | 22.6 | 14.7 | Number of dropped mice, traction test ([4]; 300 mg/kg p.o., 1 hr): 3 mice; Number of dropped mice, traction test ([4]; 300 mg/kg p.o., 2 hr): 1 mice; Number of dropped mice, traction test ([4]; 300 mg/kg p.o., 3 hr): 1 mice
COc1ccc2oc(C(=O)N(C)C)c(C)c2c1 [Compound (F), 5-Methoxy-N,N,3-trimethyl-benzo[b]furan-2-carboxamide] | > 1000 | – | – | – | 4 | 2 | 1 | 1 | 0 | 0 | 5 | 5 | 3 | 1 | 0 | 0 | 30 | 100 | 11 | 0 | Number of dropped mice, traction test ([4]; 300 mg/kg p.o., 1 hr): 5 mice; Number of dropped mice, traction test ([4]; 300 mg/kg p.o., 2 hr): 3 mice; Number of dropped mice, traction test ([4]; 300 mg/kg p.o., 3 hr): 1 mice
Cc1c(C(=O)N(C)C)oc2ccc(Cl)cc12 [Compound (G), 5-Chloro-N,N,3-trimethyl-benzo[b]furan-2-carboxamide] | > 1000 | 3 | 2 | 2 | 5 | 5 | 5 | 5 | 4 | 3 | – | – | – | 3 | 3 | 2 | – | – | 91.4 | 45.7 | Number of dropped mice, rotating rod test ([3]; 75 mg/kg p.o., 1 hr): 3 mice; Number of dropped mice, rotating rod test ([3]; 75 mg/kg p.o., 2 hr): 1 mice; Number of dropped mice, rotating rod test ([3]; 75 mg/kg p.o., 3 hr): 1 mice; Number of dropped mice, traction test ([4]; 75 mg/kg p.o., 1 hr): 1 mice; Number of dropped mice, traction test ([4]; 75 mg/kg p.o., 2 hr): 1 mice; Number of dropped mice, traction test ([4]; 75 mg/kg p.o., 3 hr): 1 mice; responders at 50 mg/kg ([5]; 50 mg/kg p.o.): 0%; responders at 75 mg/kg ([5]; 75 mg/kg p.o.): 40%; responders at 100 mg/kg [5]: 100%
COc1cc(C)nc(-n2nc(C)cc2OC)n1 [Mepirizole, mepirizole, reference compound] | 500 to 1000 | 3 | 1 | 0 | – | – | – | 5 | 1 | 0 | – | – | – | 2 | 0 | 0 | 85.7 | 100 | – | – | responders at 100 mg/kg [5]: 20%; inhibition in vivo at 50 mg/kg ([6]; 50 mg/kg p.o.): 30.4%; inhibition in vivo at 200 mg/kg ([6]; 200 mg/kg p.o.): 84.7%; inhibition in vivo at 100 mg/kg ([7]; 100 mg/kg p.o.): 29.2%; inhibition in vivo at 200 mg/kg ([7]; 200 mg/kg p.o.): 47%
